Data from US8461344B2, “Polymorph forms of (2S)-(4E)-N-methyl-5-[3-(5-isopropdxypyridin)yl]-4-penten-2-amine” (Targacept, Inc., priority 2006, dated 2013).

Target: CNS nicotinic receptors
Test: Binding to relevant receptor sites
Conditions: free base used to prepare the salt forms, stated in words only
Procedure: Receptor binding constants provide a measure of the ability of the compound to bind to half of the relevant receptor sites of certain brain cells of the patient. See, Cheng, et al., Biochem. Pharmacol. 22:3099 (1973). The (2S)-(4E)-N-methyl-5-[3-(5-isopropoxypyridin)yl]-4-penten-2-amine compound used to prepare the salt forms has extremely high affinity for the relevant receptors, with a binding affinity in the low nM range.
Binding of the compounds to relevant receptor sites was determined in accordance with the techniques described in U.S. Pat. No. 6,953,855 to Mazurov et al. Inhibition constants (Ki values), reported in nM, were calculated from the IC50 values using the method of Cheng et al., Biochem, Pharmacol. 22:3099 (1973).

binding affinity: low nM range
SMILES: CN[C@@H](C)C/C=C/c1cncc(OC(C)C)c1 [(2S)-(4E)-N-methyl-5-[3-(5-isopropoxypyridin)yl]-4-penten-2-amine]
